Test system: Corynebacterium minutissimum
Experiment: Zone of Inhibition test on inoculated agar plates
Assay type: cell-based
Conditions: for Zone of Inhibition (mm): from the edge of 2 cm disk, 0.2 g stick or approx. 0.6 g neat, 37° C., 48 hrs
Description: A commercially available regular Mennen Speed Stick (MSS) deodorant stick, an Ultimate Mennen Speed Stick deodorant stick (containing triclosan as a control) and the PG-free deodorant stick containing glycerin were tested with a Zone Of Inhibition test using 2 cm Webril® (Fiberweb, Gray Court, S.C.) cotton disks on inoculated plates. Also, as controls: water, neat (undiluted) PG and neat glycerin were tested.
Zone of Inhibition Test method: To the disks was added 0.2 g of the stick products or approximately 0.6 g (enough to just saturate the disk) of the neat controls. The disks were then inverted and placed face down on an inoculated agar plate. The agar plates were streaked beforehand (30 minutes) such that a bacterial lawn of Corynebacterium minutissimum at a concentration of 10^6/ml was created covering the entire plate surface. The plates were then incubated at 37° C. for 48 hrs.
Zones of inhibition were measured in millimeters (mm) from the edge of the disk. A greater zone equals increased bacterial growth inhibition.

OCC(O)CO [Glycerin neat, glycerin] was tested, and the “Zone of inhibition result in words” value was “small zone” and the “Zone of Inhibition (mm)” value was 1 mm.
In the case of CC(O)CO (stereo not drawn) [PG neat, propylene glycol], the “Zone of Inhibition (mm)” value is reported as 2.5 mm.

Reference: patent US9795810B2, “Propylene glycol/glycerin-based deodorant” (COLGATE-PALMOLIVE COMPANY, priority 2007, dated 2017)
